Reference: patent US12459951B2, “Compounds that interact with RAS superfamily proteins for treatment of cancers, inflammatory diseases, rasopathies, and fibrotic disease” (SHY Therapeutics, LLC, priority 2022, dated 2025)

What was measured:
KRas G12D mutant = experiment: Ras GTP Binding Domain Inhibition Assay (Ras Superfamily Assay); conditions: 20 μM compound; for KRas G12D mutant + SOS: % inh.: with SOS; for KRas G12D mutant: % inh.: without SOS
Summary of the method: (§1)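 Binding of 100 nM fluorescent GTP (Cy3 or Cy5, 45 min, room temperature) was read after washes from plate-captured His-tagged protein. Beforehand, compounds at 20 μM or in dilution series for IC50 sat 3 h on the protein in Tris buffer pH 7.4 or 7.0 with 1% DMSO, Sos GEF optionally added for the last hour.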

KRas Q61H mutant = experiment: as above; conditions: 20 μM compound; for KRas Q61H mutant + SOS: % inh.: with SOS; for KRas Q61H mutant: % inh.: without SOS
Summary of the method: as §1

Rac-1 = biological target: T1, Rac-1 (Homo sapiens, UniProt P63000); experiment: as above; conditions: read-out: Rac-1: % inh.
T1 construct: made in house
Summary of the method: as §1

KRas wild type = experiment: as above; conditions: 20 μM compound; for KRas wild type + SOS: % inh.: with SOS; for KRas wild type: % inh.: without SOS
Summary of the method: as §1

Rho-A = biological target: T2, Rho-A (Homo sapiens, UniProt P61586); experiment: as above; conditions: read-out: Rho-A: % inh..
T2 construct: made in house
Summary of the method: as §1

KRas G12C mutant = experiment: as above; conditions: 20 μM compound; for KRas G12C mutant + SOS: % inh.: with SOS; for KRas G12C mutant: % inh.: without SOS
Summary of the method: as §1

IL6 = experiment: IL-6 Quantification Assay (ELISA), LPS-stimulated RAW 264.7; format: cell-based; design: inhibition: dose or concentration left out as unconfirmed; conditions: Mus musculus, RAW264.7; read-out: IL-6: % inh.
Akt phosphorylation = experiment: Akt Phosphorylation Assay (western blot), Panc-1; format: cell-based, human; conditions: at 10 μM, * = activation
Summary of the method: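 Phospho-Akt (Ser473) was measured by western blot in lysates of KRas G12D Panc-1 cells exposed to test compound for 6 h at 37 °C, either at 10 μM final with 0.3% DMSO or as serial dilutions for IC50. One format used overnight 0.5% FBS starvation followed by a 15 min pulse of 1.5 ng/ml EGF. The other used cells in 10% FBS with no stimulation.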

TNF-alpha = TNF-alpha Quantification Assay (ELISA), LPS-stimulated RAW 264.7; format: cell-based; conditions: Mus musculus, RAW264.7; at 10 μM; read-out: TNFα: % inh.

T2 sequence (P61586 whole entry): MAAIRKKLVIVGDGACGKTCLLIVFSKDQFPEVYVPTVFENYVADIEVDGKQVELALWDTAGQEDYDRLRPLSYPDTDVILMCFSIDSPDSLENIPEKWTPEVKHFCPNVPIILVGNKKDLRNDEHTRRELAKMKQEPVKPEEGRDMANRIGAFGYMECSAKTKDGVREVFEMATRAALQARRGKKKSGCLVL

Structure (SMILES) | KRas G12D mutant + SOS: % inh. (KRas G12D mutant) | KRas G12D mutant: % inh. (KRas G12D mutant) | KRas Q61H mutant + SOS: % inh. (KRas Q61H mutant) | KRas Q61H mutant: % inh. (KRas Q61H mutant) | inhibition at 20 µM (Rac-1) | KRas wild type + SOS: % inh. (KRas wild type) | KRas wild type: % inh. (KRas wild type) | inhibition at 20 µM (Rho-A) | KRas G12C mutant + SOS: % inh. (KRas G12C mutant) | KRas G12C mutant: % inh. (KRas G12C mutant) | inhibition (IL6) | % inh of Akt phosphorylation in Panc-1 (Akt phosphorylation) | inhibition at 10 µM (TNF-alpha)
COc1cncnc1Nc1nc(-c2nccn2C)nn2cc(-c3ccn(C(C)C)n3)c(C)c12 [Compound 73, 6-(1-Isopropyl-1H-pyrazol-3-yl)-N-(5-methoxypyrimidin-4-yl)-5-methyl-2-(1-methyl-1H-imidazol-2-yl)pyrrolo[2,1-f][1,2,4]triazin-4-amine] | B (B = 26-49% inhibition) | C (C = 50-75% inhibition) | C (C = 50-75% inhibition) | C (C = 50-75% inhibition) | 50 to 75% | B (B = 26-49% inhibition) | C (C = 50-75% inhibition) | 76 to 100% | B (B = 26-49% inhibition) | B (B = 26-49% inhibition) | 50 to 74% | D* (85-100% activation) | 0%
COc1cccc(Nc2nc(-c3nccn3C)nn3ccc(C)c23)n1 [Compound 38, N-(6-Methoxypyridin-2-yl)-5-methyl-2-(1-methyl-1H-imidazol-2-yl)pyrrolo[2,1-f][1,2,4]triazin-4-amine] | 0 (0 = 0% inhibition) | 0 (0 = 0% inhibition) | 0 (0 = 0% inhibition) | 0 (0 = 0% inhibition) | 0% | 0 (0 = 0% inhibition) | 0 (0 = 0% inhibition) | 1 to 25% | 0 (0 = 0% inhibition) | 0 (0 = 0% inhibition) | 25 to 49% | 0 (0% inhibition) | 1 to 24%
COc1cccc(-c2cn3nc(-c4nccn4C)nc(N[C@H]4C[C@H](OC)C4)c3c2-c2ccccc2)c1F [Compound 42, 6-(2-Fluoro-3-methoxyphenyl)-N-((1r,3r)-3-methoxycyclobutyl)-2-(1-methyl-1H-imidazol-2-yl)-5-phenylpyrrolo[2,1-f][1,2,4]triazin-4-amine] | 0 (0 = 0% inhibition) | 0 (0 = 0% inhibition) | B (B = 26-49% inhibition) | B (B = 26-49% inhibition) | 0% | 0 (0 = 0% inhibition) | 0 (0 = 0% inhibition) | 1 to 25% | 0 (0 = 0% inhibition) | 0 (0 = 0% inhibition) | 75 to 100% | D (85-100% inhibition) | 75 to 100%
Cn1ccnc1-c1nc(OCCN2CCCC2)c2c(-c3ccccc3)ccn2n1 [Compound 41, 2-(1-Methyl-1H-imidazol-2-yl)-5-phenyl-4-(2-(pyrrolidin-1-yl)ethoxy)pyrrolo[2,1-f][1,2,4]triazine] | A (A = 1-25% inhibition) | 0 (0 = 0% inhibition) | 0 (0 = 0% inhibition) | 0 (0 = 0% inhibition) | 0% | 0 (0 = 0% inhibition) | A (A = 1-25% inhibition) | 0% | 0 (0 = 0% inhibition) | 0 (0 = 0% inhibition) | 1 to 24% | A* (1-25% activation) | 1 to 24%
CO[C@H]1CC[C@@H](Nc2nc(-c3ccccn3)nn3cc(-c4ccn(C(C)C)n4)c(-c4ccccc4)c23)C1 (racemic) [Compound 24, rac 6-(1-Isopropyl-1H-pyrazol-3-yl)-N-((1R,3S)-3-methoxycyclopentyl)-5-phenyl-2-(pyridin-2-yl)pyrrolo[2,1-f][1,2,4]triazin-4-amine] | 0 (0 = 0% inhibition) | 0 (0 = 0% inhibition) | 0 (0 = 0% inhibition) | 0 (0 = 0% inhibition) | 0% | 0 (0 = 0% inhibition) | 0 (0 = 0% inhibition) | 0% | 0 (0 = 0% inhibition) | 0 (0 = 0% inhibition) | 25 to 49% | A* (1-25% activation) | 25 to 49%
COCC1CCN(c2nc(-c3ccccn3)nn3cc(-c4ccn(C(C)C)n4)c(-c4ccccc4)c23)C1 (racemic) [Compound 25, rac 6-(1-Isopropyl-1H-pyrazol-3-yl)-4-(3-(methoxymethyl)pyrrolidin-1-yl)-5-phenyl-2-(pyridin-2-yl)pyrrolo[2,1-f][1,2,4]triazine] | A (A = 1-25% inhibition) | A (A = 1-25% inhibition) | A (A = 1-25% inhibition) | A (A = 1-25% inhibition) | 1 to 25% | A (A = 1-25% inhibition) | A (A = 1-25% inhibition) | 1 to 25% | A (A = 1-25% inhibition) | A (A = 1-25% inhibition) | 1 to 24% | D (85-100% inhibition) | 1 to 24%
COc1cccc(-c2cn3nc(-c4nccn4C)nc(N[C@H]4C[C@@H](OC)C4)c3c2-c2ccccc2)c1Cl [Compound 31, 6-(2-Chloro-3-methoxyphenyl)-N-((1s,3s)-3-methoxycyclobutyl)-2-(1-methyl-1H-imidazol-2-yl)-5-phenylpyrrolo[2,1-f][1,2,4]triazin-4-amine] | B (B = 26-49% inhibition) | A (A = 1-25% inhibition) | A (A = 1-25% inhibition) | 0 (0 = 0% inhibition) | 1 to 25% | 0 (0 = 0% inhibition) | A (A = 1-25% inhibition) | 1 to 25% | 0 (0 = 0% inhibition) | A (A = 1-25% inhibition) | 75 to 100% | D (85-100% inhibition) | 75 to 100%
COc1cccc(-c2cn3nc(-c4nccn4C)nc(N[C@@H]4CC[C@@H](OC)C4)c3c2-c2ccccc2)c1F (racemic) [Compound 43, rac 6-(2-Fluoro-3-methoxyphenyl)-N-((1R,3R)-3-methoxycyclopentyl)-2-(1-methyl-1H-imidazol-2-yl)-5-phenylpyrrolo[2,1-f][1,2,4]triazin-4-amine] | 0 (0 = 0% inhibition) | A (A = 1-25% inhibition) | B (B = 26-49% inhibition) | B (B = 26-49% inhibition) | 1 to 25% | 0 (0 = 0% inhibition) | 0 (0 = 0% inhibition) | 1 to 25% | 0 (0 = 0% inhibition) | 0 (0 = 0% inhibition) | 25 to 49% | B (26-49% inhibition) | 1 to 24%
Cc1c(-c2ccn(C(C)C)n2)cn2nc(-c3nccn3C)nc(Nc3ncccn3)c12 [Compound 54, 6-(1-Isopropyl-1H-pyrazol-3-yl)-5-methyl-2-(1-methyl-1H-imidazol-2-yl)-N-(pyrimidin-2-yl)pyrrolo[2,1-f][1,2,4]triazin-4-amine] | C (C = 50-75% inhibition) | D (D = 76-100% inhibition) | D (D = 76-100% inhibition) | D (D = 76-100% inhibition) | 76 to 100% | C (C = 50-75% inhibition) | C (C = 50-75% inhibition) | 76 to 100% | C (C = 50-75% inhibition) | D (D = 76-100% inhibition) | 25 to 49% | B* (26-49% activation) | 1 to 24%
